In patent US20190167569A1, “ENHANCED HERBAL EXTRACTION AND TRANSDERMAL DELIVERY” (priority 2016, published 2019):
Read-outs that look alike come from different tables or passages of the source.

Experiments:
[1] = type: in vitro ADME
Protocol: (§1) The diffusion rates of different rosemary extract solutions through diffusion cells that mimic human skin were calculated and analyzed using UV-VIS spectrophotometry to measure rosmarinic acid content. Franz diffusion cells from Permegear, USA, with 47 mm, 200 nm inert polycarbonate membrane filters, were used with 5 ml extract solution samples. The speed of diffusion of different rosemary extracts were calculated at 1, 2, 3, 4, 10, 20, 30, 60, 120, 360 minutes (and up to 1 day of duration) at a rotational speed of 50 rpm to mimic a dermal application. The amount of rosmarinic acid that passed through the filter was determined by absorbance graphics on a UV spectrophotometer (Agilent 8453). A standard calibration curve was determined for rosmarinic acid and the absorbances were measured at 323 nm to determine the % concentrations released.
For a reference or baseline sample, a decoction of rosemary in water alone was prepared at a 1:5 ratio.
A soapwort decoction (an extraction medium with a saponin content) was prepared in water at a 1:5 ratio. A consequent decoction of rosemary (i.e., a rosemary extract solution) was prepared in the mentioned soapwort decoction at a 1:5 ratio. […] Thus, the transdermal delivery of rosmarinic acid using the method of the present invention is much faster than classical water decoctions predominantly used in modern dermal or cosmetic formulations.
as §1, with “5, 40” for “4, 10, 20, 30, 60, 120, 360”
A soapwort decoction (an extraction medium with a saponin content) was prepared in water at a 1:5 ratio. A decoction of rosemary (i.e., a rosemary extract solution) was prepared in 5×distilled water. The mentioned soapwort decoction and the water decoction of the rosemary leaves were then mixed at a 1:1 ratio. The following diffusion values were measured for this mixture: 14% at minute 1, 49.4% at minute 3, and 100% at minute 5.
The diffusion rates of rosemarinic acid in rosemary essential oil through diffusion cells that mimic human skin were calculated and analyzed using UV-VIS spectrophotometry to measure rosmarinic acid content. Franz diffusion cells from Permegear, USA, with 47 mm, 200 nm inert polycarbonate membrane filters, were used with 5 ml extract solution samples. The speed of diffusion of different rosemary extracts were calculated at 1, 2, 3, 4, 7, 10, 20, 40 minutes (and up to 1 day of duration) at a rotational speed of 50 rpm to mimic a dermal application. The amount of rosmarinic acid that passed through the filter was determined by absorbance graphics on a UV spectrophotometer (Agilent 8453). A standard calibration curve was determined for rosmarinic acid and the absorbances were measured at 323 nm to determine the % concentrations released.

[2] = Diffusion of carvacrol in thyme essential oil through Franz diffusion cells that mimic human skin (UV-VIS, 272 nm); type: in vitro ADME
Protocol: The diffusion rates of carvacrol in thyme (Tymus vulgaris) essential oil through diffusion cells that mimic human skin were calculated and analyzed using UV-VIS spectrophotometry to measure carvacrol content. Franz diffusion cells from Permegeaer, USA, with 47 mm, 200 nm inert polycarbonate membrane filters, were used with 5 ml extract solution samples. […] The amount of carvacrol that passed through the filter was determined by absorbance graphics on a UV spectrophotometer (Agilent 8453). A standard calibration curve was determined for carvacrol and the absorbances were measured at 272 nm to determine the % concentrations released.
The diffusion rates of carvacrol in thyme (Tymus vulgaris) essential oil (0.05 ml of thyme essential oil) dispersed in 1 ml of soapwort extract solution through diffusion cells that mimic human skin were calculated and analyzed using UV-VIS spectrophotometry to measure carvacrol content. Franz diffusion cells from Permegear, USA, with 47 mm, 200 nm inert polycarbonate membrane filters, were used with 5 ml extract solution samples. The speed of diffusion of different thyme extracts were calculated at 1, 3, 5, 7, 10, 20, 40 minutes (and up to 1 day of duration) at a rotational speed of 50 rpm to mimic a dermal application. The amount of carvacrol that passed through the filter was determined by absorbance graphics on a UV spectrophotometer (Agilent 8453). A standard calibration curve was determined for carvacrol and the absorbances were measured at 272 nm to determine the % concentrations released.
The diffusion rates of carvacrol in thyme (Tymus vulgaris) essential oil (0.05 ml of thyme essential oil dispersed in 1 ml of licorice extract solution) through diffusion cells that mimic human skin were calculated and analyzed using UV-VIS spectrophotometry to measure carvacrol content. Franz diffusion cells from Permegeaer, USA, with 47 mm, 200 nm inert polycarbonate membrane filters, were used with 5 ml extract solution samples. The speed of diffusion of different thyme extracts were calculated at 1, 2, 3, 4, 7, 10, 20, 30, 40 minutes (and up to 1 day of duration) at a rotational speed of 50 rpm to mimic a dermal application. The amount of carvacrol that passed through the filter was determined by absorbance graphics on a UV spectrophotometer (Agilent 8453). A standard calibration curve was determined for carvacrol and the absorbances were measured at 272 nm to determine the % concentrations released.

[3] = type: physicochemical
Protocol: 100% of the carvacrol present in soapwort extract solution was released at the end of 40 minutes whereas about 90% of carvacrol present in licorice extract solution at the end of 40 minutes. When the solubilities were compared, it was observed that 0.5% of thyme oil was clearly dissolved in soapwort water extract and maximum 2% of thyme oil could be homogenously dispersed in soapwort. The maximum amount of thyme oil dissolved in licorice was 0.5%. Absorbance results clearly indicate that soapwort water extract has higher potential to dissolve and diffuse carvacrol of Thyme essential oil than does licorice.

With `O=C(/C=C/c1ccc(O)c(O)c1)O[C@H](Cc1ccc(O)c(O)c1)C(=O)O` [Rosmarinic Acid, rosmarinic acid] the absorbance values [1] was “minimal”, the “fraction of the control sample diffusion time” value [1] was 1/30 and the “penetration rate relative to control sample (only water decoction of rosemary)” value [1] was “approximately 30 ×”. For the same compound, the “transdermal delivery (in words)” value [1] was “negligible”, the rosemarinic acid released ([1]; 40 min) was 0% and the “rosmarinic acid content passed through the membrane” value ([1]; 150 min) was 100%.
For `Cc1ccc(C(C)C)cc1O` [carvacrol], the diffusion ([2]; 0.05 ml thyme essential oil in 1 ml licorice extract solution, after 24 hours) was 100%, the diffusion value ([2]; 0.05 ml thyme essential oil in 1 ml licorice extract solution, minute 1) was 0% and the diffusion value ([2]; 0.05 ml thyme essential oil in 1 ml licorice extract solution, minute 2) was 3.98%. It also gave a diffusion value ([2]; 0.05 ml thyme essential oil in 1 ml licorice extract solution, minute 3) of 14.41%, a diffusion value ([2]; 0.05 ml thyme essential oil in 1 ml licorice extract solution, minute 4) of 32.98% and a diffusion value ([2]; 0.05 ml thyme essential oil in 1 ml licorice extract solution, minute 7) of 42.59%. The diffusion value ([2]; 0.05 ml thyme essential oil in 1 ml licorice extract solution, minute 10) was 56.35%, the diffusion value ([2]; 0.05 ml thyme essential oil in 1 ml licorice extract solution, minute 20) was 67.61% and the diffusion value ([2]; 0.05 ml thyme essential oil in 1 ml licorice extract solution, minute 30) was 77.73%. The diffusion value ([2]; 0.05 ml thyme essential oil in 1 ml soapwort extract solution, minute 1) was 8.20%, the diffusion value ([2]; 0.05 ml thyme essential oil in 1 ml soapwort extract solution, minute 3) was 26.43% and the diffusion value ([2]; 0.05 ml thyme essential oil in 1 ml soapwort extract solution, minute 5) was 44.75%. The diffusion value ([2]; 0.05 ml thyme essential oil in 1 ml soapwort extract solution, minute 7) was 66.29%, the diffusion value ([2]; 0.05 ml thyme essential oil in 1 ml soapwort extract solution, minute 10) was 77.15% and the diffusion value ([2]; 0.05 ml thyme essential oil in 1 ml soapwort extract solution, minute 20) was 91.39%. For the same compound, the diffusion value ([2]; 0.05 ml thyme essential oil in 1 ml soapwort extract solution, minute 40) was 100%, the “transdermal delivery (in words)” value ([2]; thyme essential oil alone) was “negligible” and the carvacrol released ([2]; thyme essential oil alone, end of 40 minutes) was 0%. The absorbance values ([2]; thyme essential oil alone, end of 48 hours) was “minimal”.
For thyme oil, the “maximum amount homogenously dispersed in soapwort” value [3] was 2%.
